# Like-named read-outs stand apart in the source and are kept apart here.
# What was measured:
# cathepsin B [1] = target: T1, cathepsin B (Homo sapiens, UniProt P07858); assay: Cathepsin B activity assay with Z-Phe-Arg-AMC, inhibition kinetics; assay type: biochemical; settings: for KI (inactivation): read-out: KI, irreversible inhibitor kinetics
# Cathepsin C = Cathepsin C (Homo sapiens, UniProt P53634); assay: Selectivity assay, cathepsin C; assay type: biochemical; settings: for % inhibition: 16 μM inhibitor
# Sequence of Cathepsin C (P53634 25-134 limits assumed): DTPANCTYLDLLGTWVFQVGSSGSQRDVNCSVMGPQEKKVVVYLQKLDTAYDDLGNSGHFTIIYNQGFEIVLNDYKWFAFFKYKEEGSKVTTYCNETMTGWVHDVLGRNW
# Sequence of Cathepsin C (P53634 231-394 limits assumed): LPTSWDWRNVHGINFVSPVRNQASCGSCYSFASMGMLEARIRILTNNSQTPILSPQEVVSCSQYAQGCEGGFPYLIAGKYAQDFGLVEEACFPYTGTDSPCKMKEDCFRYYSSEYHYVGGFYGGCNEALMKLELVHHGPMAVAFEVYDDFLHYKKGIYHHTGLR
# Sequence of Cathepsin C (P53634 395-463 limits assumed): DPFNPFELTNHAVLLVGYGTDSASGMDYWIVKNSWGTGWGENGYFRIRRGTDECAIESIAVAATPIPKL
# Cathepsin K = target: T2, Cathepsin K (Homo sapiens, UniProt P43235); assay: Selectivity assay, cathepsin K; assay type: biochemical; settings: for % inhibition: 16 μM inhibitor
# T2 sequence (P43235 115-329): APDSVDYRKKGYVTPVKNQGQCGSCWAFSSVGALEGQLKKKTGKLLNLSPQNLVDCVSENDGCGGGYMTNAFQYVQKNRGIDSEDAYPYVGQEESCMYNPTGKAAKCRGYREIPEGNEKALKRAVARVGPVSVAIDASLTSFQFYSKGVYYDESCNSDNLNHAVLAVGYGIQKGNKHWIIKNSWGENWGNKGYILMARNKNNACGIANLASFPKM
# Cathepsin S = Cathepsin S (Homo sapiens, UniProt P25774); assay: Selectivity assay, cathepsin S; assay type: biochemical; settings: for % inhibition: 16 μM inhibitor
# Sequence of Cathepsin S (P25774 115-331): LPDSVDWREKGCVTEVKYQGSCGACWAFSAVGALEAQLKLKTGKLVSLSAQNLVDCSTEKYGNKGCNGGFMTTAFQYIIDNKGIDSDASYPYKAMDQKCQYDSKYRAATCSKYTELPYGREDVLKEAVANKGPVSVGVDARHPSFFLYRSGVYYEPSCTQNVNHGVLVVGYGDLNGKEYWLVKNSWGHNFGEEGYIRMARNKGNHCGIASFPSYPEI
# Cathepsin V = Cathepsin V (Homo sapiens, UniProt O60911); assay: Selectivity assay, cathepsin V; assay type: biochemical; settings: for % inhibition: 16 μM inhibitor
# Sequence of Cathepsin V (O60911 114-334): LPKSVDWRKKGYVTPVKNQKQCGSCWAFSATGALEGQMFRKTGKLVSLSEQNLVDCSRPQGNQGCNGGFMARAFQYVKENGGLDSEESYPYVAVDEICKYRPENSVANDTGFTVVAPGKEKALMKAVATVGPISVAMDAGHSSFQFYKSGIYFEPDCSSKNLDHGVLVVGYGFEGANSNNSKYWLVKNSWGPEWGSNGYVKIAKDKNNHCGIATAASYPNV
# Cathepsin X = Cathepsin X (Homo sapiens, UniProt Q9UBR2); assay: Selectivity assay, cathepsin X; assay type: biochemical; settings: for % inhibition: 16 μM inhibitor
# Sequence of Cathepsin X (Q9UBR2 62-303): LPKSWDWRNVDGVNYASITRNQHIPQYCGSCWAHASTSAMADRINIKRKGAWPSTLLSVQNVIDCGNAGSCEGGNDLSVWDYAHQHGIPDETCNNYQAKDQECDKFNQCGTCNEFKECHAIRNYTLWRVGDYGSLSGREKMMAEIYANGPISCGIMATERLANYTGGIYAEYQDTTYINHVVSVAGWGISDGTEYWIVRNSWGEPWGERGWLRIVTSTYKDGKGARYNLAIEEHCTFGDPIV
# cathepsin B [2] = target: T1, cathepsin B; assay: Irreversible inhibition mechanism by dilution experiments; assay type: biochemical; settings: pH 4.6, pH 5.5, and pH 7.2; preincubation at 10 times the IC50, diluted 100-fold, Z-F-R-AMC added
# cathepsin B [3] = target: T1, cathepsin B; assay: Multiplex substrate profiling by mass spectrometry; assay type: biochemical; settings: 10 nM inhibitor, 30 min preincubation
# Cathepsin H = Cathepsin H (Homo sapiens, UniProt P09668); assay: Selectivity assay, cathepsin H; assay type: biochemical; settings: for % inhibition: 16 μM inhibitor
# Sequence of Cathepsin H (P09668 116-335 limits assumed, other chains not shown): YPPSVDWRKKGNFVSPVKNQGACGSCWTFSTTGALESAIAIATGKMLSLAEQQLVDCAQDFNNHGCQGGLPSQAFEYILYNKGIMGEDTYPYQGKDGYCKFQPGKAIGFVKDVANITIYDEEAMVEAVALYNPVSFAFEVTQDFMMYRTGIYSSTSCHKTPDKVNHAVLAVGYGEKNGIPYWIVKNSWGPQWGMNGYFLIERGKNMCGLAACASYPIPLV
# Cathepsin L = Cathepsin L (Homo sapiens, UniProt P07711); assay: Selectivity assay, cathepsin L; assay type: biochemical; settings: for % inhibition: 16 μM inhibitor
# Sequence of Cathepsin L (P07711 114-333): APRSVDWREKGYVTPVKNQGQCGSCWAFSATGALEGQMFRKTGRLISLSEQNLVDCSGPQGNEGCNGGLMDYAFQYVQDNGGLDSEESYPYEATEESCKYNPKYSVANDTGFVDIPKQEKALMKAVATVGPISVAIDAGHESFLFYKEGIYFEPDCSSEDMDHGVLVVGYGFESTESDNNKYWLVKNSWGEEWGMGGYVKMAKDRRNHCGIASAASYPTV
# cathepsin B [4] = settings: ref [44]; cited from earlier work
smiles,measurement,setting,value
"CCCNC(=O)[C@H]1O[C@@H]1C(=O)N[C@H](C(=O)N1CCC[C@H]1C(=O)O)[C@@H](C)CC (relative stereo) [CA-074, N-(L-3-trans-propylcarbamoyloxirane-2-carbonyl)-L-isoleucyl-L-proline]",effect on cathepsin B cleavage of Z-Phe-Arg-AMC substrate,"cathepsin B [1]; 10 nM inhibitor, pH 7.2",no effect
same,IC50,Cathepsin C; pH 4.6,> 16 µM
same,IC50,Cathepsin C; pH 5.5,> 16 µM
same,IC50,Cathepsin C; pH 7.2,> 16 µM
same,IC50,Cathepsin K; pH 4.6,> 16 µM
same,% inhibition,"Cathepsin K; pH 4.6, 16 µM",8%
same,IC50,Cathepsin K; pH 5.5,> 16 µM
same,IC50,Cathepsin K; pH 7.2,> 16 µM
same,IC50,Cathepsin S; pH 4.6,> 16 µM
same,IC50,Cathepsin S; pH 5.5,4.8 µM
same,IC50,Cathepsin S; pH 7.2,> 16 µM
same,% inhibition,Cathepsin S; pH 7.2,29%
same,IC50,Cathepsin V; pH 4.6,> 16 µM
same,% inhibition,"Cathepsin V; pH 4.6, 16 µM",10%
same,IC50,Cathepsin V; pH 5.5,> 16 µM
same,IC50,Cathepsin V; pH 7.2,> 16 µM
same,IC50,Cathepsin X; pH 4.6,> 16 µM
same,% inhibition,"Cathepsin X; pH 4.6, 16 µM",5%
same,IC50,Cathepsin X; pH 5.5,> 16 µM
same,irreversible or reversible inhibition of cathepsin B,cathepsin B [2],irreversible
same,effect on cathepsin B cleavages of peptide library substrates (MSP-MS),cathepsin B [3]; pH 4.6,blocked
same,effect on cathepsin B cleavages of peptide library substrates (MSP-MS),cathepsin B [3]; pH 7.2,no effect
CCCNC(=O)[C@H]1O[C@@H]1C(=O)N[C@H](C(=O)N1CCC[C@H]1C(=O)OC)[C@@H](C)CC [CA-074Me],IC50,cathepsin B [1]; pH 4.6,8.9 µM
same,fold less potent than CA-074 (IC50),cathepsin B [1]; pH 4.6,1495 fold
same,kinact,cathepsin B [1]; pH 4.6,0.016 s⁻¹
same,kinact/KI,cathepsin B [1]; pH 4.6,310 M⁻¹ s⁻¹
same,IC50,"cathepsin B [1]; pH 4.6, Z-Phe-Arg-AMC substrate, no preincubation",8.97 µM
same,fold less potent than CA-074 (IC50),cathepsin B [1]; pH 5.5,311 fold
same,kinact,cathepsin B [1]; pH 5.5,0.014 s⁻¹
same,kinact/KI,cathepsin B [1]; pH 5.5,250 M⁻¹ s⁻¹
same,potency (KI) compared to CA-074,cathepsin B [1]; pH 5.5,1/265
same,IC50,"cathepsin B [1]; pH 5.5, Z-Phe-Arg-AMC substrate, no preincubation",13.7 µM
same,IC50,cathepsin B [1]; pH 7.2,7.6 µM
same,fold less potent than CA-074 (IC50),cathepsin B [1]; pH 7.2,10 fold
same,kinact,cathepsin B [1]; pH 7.2,0.014 s⁻¹
same,kinact/KI,cathepsin B [1]; pH 7.2,480 M⁻¹ s⁻¹
same,potency (KI) compared to CA-074,cathepsin B [1]; pH 7.2,1/15
same,IC50,"cathepsin B [1]; pH 7.2, Z-Phe-Arg-AMC substrate, no preincubation",7.56 µM
same,KI (inactivation),cathepsin B [1]; pH 4.6,52 µM
same,KI (inactivation),cathepsin B [1]; pH 5.5,56 µM
same,KI (inactivation),cathepsin B [1]; pH 7.2,29 µM
same,IC50,Cathepsin C; pH 4.6,> 16 µM
same,% inhibition,Cathepsin C; pH 4.6,5%
same,IC50,Cathepsin C; pH 5.5,> 16 µM
same,% inhibition,Cathepsin C; pH 5.5,0%
same,IC50,Cathepsin C; pH 7.2,> 16 µM
same,% inhibition,Cathepsin C; pH 7.2,4%
same,IC50,Cathepsin H; pH 4.6,> 16 µM
same,% inhibition,Cathepsin H; pH 4.6,0%
same,IC50,Cathepsin H; pH 5.5,> 16 µM
same,% inhibition,Cathepsin H; pH 5.5,0%
same,IC50,Cathepsin H; pH 7.2,> 16 µM
same,% inhibition,Cathepsin H; pH 7.2,19%
same,IC50,Cathepsin L; pH 4.6,> 16 µM
same,% inhibition,Cathepsin L; pH 4.6,0%
same,IC50,Cathepsin L; pH 5.5,> 16 µM
same,% inhibition,Cathepsin L; pH 5.5,0%
same,IC50,Cathepsin K; pH 4.6,> 16 µM
same,% inhibition,Cathepsin K; pH 4.6,0%
same,IC50,Cathepsin K; pH 5.5,> 16 µM
same,% inhibition,Cathepsin K; pH 5.5,0%
same,IC50,Cathepsin K; pH 7.2,> 16 µM
same,% inhibition,Cathepsin K; pH 7.2,16%
same,IC50,Cathepsin S; pH 4.6,> 16 µM
same,% inhibition,Cathepsin S; pH 4.6,22%
same,IC50,Cathepsin S; pH 5.5,5.5 µM
same,IC50,Cathepsin S; pH 7.2,3.8 µM
same,IC50,Cathepsin V; pH 5.5,> 16 µM
same,% inhibition,Cathepsin V; pH 5.5,22%
same,IC50,Cathepsin V; pH 7.2,> 16 µM
same,% inhibition,Cathepsin V; pH 7.2,0%
same,IC50,Cathepsin X; pH 4.6,> 16 µM
same,% inhibition,Cathepsin X; pH 4.6,0%
same,IC50,Cathepsin X; pH 5.5,> 16 µM
same,% inhibition,Cathepsin X; pH 5.5,0%
same,irreversible or reversible inhibition of cathepsin B,cathepsin B [2],irreversible inhibition
Cc1cccc(C)c1C(=O)OCC(=O)[C@H](CCCCN)NC(=O)[C@H](CCCN=C(N)N)NC(=O)OCc1ccccc1 [Z-Arg-Lys-AOMK],fold selective at inhibiting cathepsin B at pH 7.4 over pH 4.6,cathepsin B [4],> 100 fold

# From paper PMC9096814 (Biochemistry, 2022)
